Test [1] relates to Cryptococcus neoformans. Description: Antimicrobial activity against Cryptococcus neoformans USC1597 isolate after 72 hrs. In kind it is functional.
For test [2], the system named is Cryptococcus neoformans. Description: Antimicrobial activity against 10^7 CFU Cryptococcus neoformans USC1597 isolate intracranially infected in Hartley guinea pig assessed as decrease in brain […] count at 10 mg/kg, po BID administered 48 hrs postinfection for 13 days. In kind it is functional.
The subject of test [3] is Cryptococcus neoformans. Description: Antimicrobial activity against 10^7 CFU Cryptococcus neoformans USC1597 isolate intracranially infected in Hartley guinea pig assessed as decrease in kidney […] count at 10 mg/kg, po BID administered 48 hrs postinfection for 13 days. In kind it is functional, organism-based. Further details: dose 10 mg/kg. As to conditions: […].

The subject of test [4] is Cryptococcus neoformans. Description: Antimicrobial activity against 10^7 CFU Cryptococcus neoformans USC1597 isolate intracranially infected in Hartley guinea pig assessed as decrease in cerebrospinal fluid […] count per ml at 10 mg/kg, po BID administered 48 hrs postinfection for 13 days. It is filed as functional.
Test [5] has as its system Cryptococcus neoformans. Description: Antimicrobial activity against 9 x 10^6 CFU Cryptococcus neoformans USC1597 isolate intracranially infected in Hartley guinea pig assessed as brain […] count per gram at 10 mg/kg, po BID administered 48 hrs postinfection for 13 days. In kind it is functional.
For test [6], the system named is Cryptococcus neoformans. Description: Antimicrobial activity against 9 x 10^6 CFU Cryptococcus neoformans USC1597 isolate intracranially infected in Hartley guinea pig assessed as kidney […] count per gram at 10 mg/kg, po BID administered 48 hrs postinfection for 13 days. In kind it is functional.
For test [7], the system named is Cryptococcus neoformans. Description: Antimicrobial activity against 9 x 10^6 CFU Cryptococcus neoformans USC1597 isolate intracranially infected in Hartley guinea pig assessed as cerebrospinal fluid […] count per ml at 10 mg/kg, po BID administered 48 hrs postinfection for 13 days. In kind it is functional.
The test system of test [8] is Cryptococcus neoformans. Description: Antimicrobial activity against 9 x 10^6 CFU Cryptococcus neoformans USC1597 isolate intracranially infected in Hartley guinea pig assessed as cerebrospinal fluid […] count per ml at 5 mg/kg, po BID administered 48 hrs postinfection for 13 days. In kind it is functional.
Test [9] deals with Cryptococcus neoformans. Description: Antimicrobial activity against 9 x 10^6 CFU Cryptococcus neoformans USC1597 isolate intracranially infected in Hartley guinea pig assessed as kidney […] count per gram at 5 mg/kg, po BID administered 48 hrs postinfection for 13 days. In kind it is functional.
Test [10] concerns Cryptococcus neoformans. Description: Antimicrobial activity against 10^7 CFU Cryptococcus neoformans USC1597 isolate intracranially infected in Hartley guinea pig assessed as decrease in cerebrospinal fluid […] count at 5 mg/kg, po BID administered 48 hrs postinfection for 13 days. In kind it is functional.
Test [11] deals with Cryptococcus neoformans. Description: Antimicrobial activity against 10^7 CFU Cryptococcus neoformans USC1597 isolate intracranially infected in Hartley guinea pig assessed as decrease in brain […] count at 20 mg/kg, po BID administered 48 hrs postinfection for 13 days. It is filed as functional.
Test [12] relates to Cryptococcus neoformans. Description: Antimicrobial activity against 10^7 CFU Cryptococcus neoformans USC1597 isolate intracranially infected in Hartley guinea pig assessed as decrease in cerebrospinal fluid […] count at 20 mg/kg, po BID administered 48 hrs postinfection for 13 days. It is filed as functional.
In test [13] the test system is Cryptococcus neoformans. Description: Antimicrobial activity against 10^7 CFU Cryptococcus neoformans USC1597 isolate intracranially infected in Hartley guinea pig assessed as decrease in brain […] count at 5 mg/kg, po BID administered 48 hrs postinfection for 13 days. It is filed as functional.
The subject of test [14] is Cryptococcus neoformans. Description: Antimicrobial activity against 9 x 10^6 CFU Cryptococcus neoformans USC1597 isolate intracranially infected in Hartley guinea pig assessed as brain […] count per gram at 5 mg/kg, po BID administered 48 hrs postinfection for 13 days. In kind it is functional.

Each structure is given as a SMILES string. Converted amounts (≈) assume the structure as drawn. The source made the active and inactive calls. No cut-off for these calls is given here.

As usually defined, the MIC is the lowest concentration that inhibits growth of the organism. A low value points to greater potency.

In turn, `C[C@@H]1[C@H](O)[C@@H](C)/C=C/C=C/C=C/C=C/C=C/C=C/C=C/[C@H](O[C@@H]2O[C@H](C)[C@@H](O)[C@H](N)[C@@H]2O)C[C@@H]2O[C@](O)(C[C@@H](O)C[C@@H](O)[C@H](O)CC[C@@H](O)C[C@@H](O)CC(=O)O[C@H]1C)C[C@H](O)[C@H]2C(=O)O` [AMPHOTERICIN B] showed a minimum inhibitory concentration (MIC) against Cryptococcus neoformans [1] of 0.25 µg/mL (≈ 0.271 µM).
With `OC(Cn1cncn1)(Cn1cncn1)c1ccc(F)cc1F` [FLUCONAZOLE], the log10cfu with Cryptococcus neoformans [2] came out at 2; in the test on Cryptococcus neoformans [4] it was 1; with Cryptococcus neoformans [5], 5.25; with Cryptococcus neoformans [6], 2.43; with Cryptococcus neoformans [7], 3.18. Also, the result with Cryptococcus neoformans [3] was Active. In the test on Cryptococcus neoformans [1], this molecule registered an MIC of 1 µg/mL (≈ 3.27 µM).
As for `C[C@@H](c1ncncc1F)[C@](O)(Cn1cncn1)c1ccc(F)cc1F` [VORICONAZOLE], the log10cfu in the test on Cryptococcus neoformans [2] is 1.5; in the test with Cryptococcus neoformans [8], 4.11; in the test on Cryptococcus neoformans [9], 3.01; with Cryptococcus neoformans [10], 0.7; with Cryptococcus neoformans [11] it was 1.5; in the test on Cryptococcus neoformans [12], 1. Further, the values for the log10cfu in the test with Cryptococcus neoformans [13], with Cryptococcus neoformans [14] and with Cryptococcus neoformans [4] were 1, 5.99 and 1.6, respectively. The molecule further returned an MIC with Cryptococcus neoformans [1] of 0.006 µg/mL (≈ 0.0172 µM).

Values taken from ChEMBL document CHEMBL1155770, “New guinea pig model of Cryptococcal meningitis” (2007).
